Laboratory results: ChEMBL document CHEMBL1201862, “PubChem BioAssay data set” (2004)
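These data come from cells grown in 96-well plates and exposed to compound for 48 hours at five concentrations. The concentration for 50% growth inhibition is given as GI50.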 Calls of active or inactive are those of the source. Cut-off read from the data, not from the text of the source: active = GI50 up to about 1.1 µM and inactive = higher.

Columns and labels:
Assay in all cases: inhibition of tumour cell growth, NCI panel, 48 h
[1] = tested on: OVCAR-8
[2] = tested on: A549
[3] = tested on: SK-MEL-2
[4] = tested on: SK-MEL-28
[5] = tested on: SK-OV-3
[6] = tested on: KM12
[7] = tested on: U-251
[8] = tested on: HCC 2998
[9] = tested on: IGROV-1
[10] = tested on: HCT-116
[11] = tested on: UACC-62
[12] = tested on: HOP-62
[13] = tested on: BT-549
[14] = tested on: SK-MEL-5
[15] = tested on: NCI-H226
[16] = tested on: EKVX
[17] = tested on: M14
[18] = tested on: HT-29
[19] = tested on: CAKI-1
[20] = tested on: NCI-H522

Row | Compound | GI50 [1] | GI50 [2] | GI50 [3] | GI50 [4] | GI50 [5] | GI50 [6] | GI50 [7] | GI50 [8] | GI50 [9] | GI50 [10] | GI50 [11] | GI50 [12] | GI50 [13] | GI50 [14] | GI50 [15] | GI50 [16] | GI50 [17] | GI50 [18] | GI50 [19] | GI50 [20]
1 | CC1(C)CNCC(C)(OCc2ccccc2)C(=O)NC(C)(C)CNCC(C)(OCc2ccccc2)C(=O)N1 (configuration not stated) | > 10 µM (inactive) | > 10 µM (inactive) | > 10 µM (inactive) | > 10 µM (inactive) | > 10 µM (inactive) | > 10 µM (inactive) | > 10 µM (inactive) | > 10 µM (inactive) | > 10 µM (inactive) | 8.99 µM (inactive) | > 10 µM (inactive) | > 10 µM (inactive) | > 10 µM (inactive) | > 10 µM (inactive) | > 10 µM (inactive) | > 10 µM (inactive) | > 10 µM (inactive) |  |  | 
2 | CC1=C2CC3=C(C)C(=O)O[C@H]3C[C@@H](C)[C@@H]2CC1 [AMERICANOLIDE D] | > 100 µM (inactive) |  | > 100 µM (inactive) | > 100 µM (inactive) | > 100 µM (inactive) | 7.48 µM (inactive) | > 100 µM (inactive) | > 100 µM (inactive) | > 100 µM (inactive) | > 100 µM (inactive) | > 100 µM (inactive) |  | > 100 µM (inactive) | 91.8 µM (inactive) | > 100 µM (inactive) | > 100 µM (inactive) | > 100 µM (inactive) | 85.9 µM (inactive) | > 100 µM (inactive) | 
3 | O=[N+]([O-])c1ccc(C[S+]([O-])Cc2ccccc2)cc1 (configuration not stated) | > 100 µM (inactive) | > 100 µM (inactive) | > 100 µM (inactive) | > 100 µM (inactive) | > 100 µM (inactive) | > 100 µM (inactive) | > 100 µM (inactive) |  | > 100 µM (inactive) | > 100 µM (inactive) | > 100 µM (inactive) | > 100 µM (inactive) | > 100 µM (inactive) | > 100 µM (inactive) | > 100 µM (inactive) | > 100 µM (inactive) | > 100 µM (inactive) | > 100 µM (inactive) | > 100 µM (inactive) | > 100 µM (inactive)
4 | O=S(=O)(c1ccccc1)C(c1ccc2ccccc2n1)S(=O)(=O)c1ccccc1 | > 100 µM (inactive) | > 100 µM (inactive) |  | > 100 µM (inactive) |  | > 100 µM (inactive) | > 100 µM (inactive) | 48.5 µM (inactive) | > 100 µM (inactive) | > 100 µM (inactive) |  | 78 µM (inactive) | > 100 µM (inactive) | > 100 µM (inactive) | > 100 µM (inactive) | > 100 µM (inactive) |  | > 100 µM (inactive) | > 100 µM (inactive) | 90.2 µM (inactive)
5 | COC(=O)c1c(O)c2c(c3c1OC(C)(C)CC3)OC(C)(C)CC2 | 17.6 µM (inactive) | 20.5 µM (inactive) |  | 26.6 µM (inactive) | 27.3 µM (inactive) | 16.9 µM (inactive) | 15.2 µM (inactive) | 16.4 µM (inactive) | 19.6 µM (inactive) | 16.8 µM (inactive) | 18.9 µM (inactive) | 21 µM (inactive) | 20 µM (inactive) | 15 µM (inactive) | 19.3 µM (inactive) | 21.2 µM (inactive) | 19.1 µM (inactive) | 16.7 µM (inactive) | 21.8 µM (inactive) | 15.8 µM (inactive)
6 | O=C1C(Cl)=C(NCCF)C(=O)c2ncccc21 | 2.03 µM (inactive) | 1.89 µM (inactive) | 1.68 µM (inactive) | 1.87 µM (inactive) | 2.29 µM (inactive) | 1.93 µM (inactive) | 1.46 µM (inactive) | 1.36 µM (inactive) | 1.95 µM (inactive) | 1.76 µM (inactive) | 0.977 µM (active) | 2.04 µM (inactive) | 1.63 µM (inactive) | 1 µM (active) | 1.92 µM (inactive) | 1.68 µM (inactive) | 1.61 µM (inactive) | 2.97 µM (inactive) |  | 
7 | N/C(CCSCCSCC/C(N)=N\O)=N\O |  | > 100 µM (inactive) |  | > 100 µM (inactive) | > 100 µM (inactive) | > 100 µM (inactive) | > 100 µM (inactive) | > 100 µM (inactive) | > 100 µM (inactive) | > 100 µM (inactive) | > 100 µM (inactive) | > 100 µM (inactive) | > 100 µM (inactive) | > 100 µM (inactive) | > 100 µM (inactive) | > 100 µM (inactive) | > 100 µM (inactive) | > 100 µM (inactive) | > 100 µM (inactive) | > 100 µM (inactive)
8 | COC(=O)C#Cc1cccc(OC)c1OC | 40.3 µM (inactive) | 37.5 µM (inactive) |  | 38.9 µM (inactive) | 48 µM (inactive) | 45.4 µM (inactive) | 31.8 µM (inactive) | 24.4 µM (inactive) |  | 33.6 µM (inactive) | 48.3 µM (inactive) | 98.2 µM (inactive) | 62.2 µM (inactive) | 29.6 µM (inactive) | 43.3 µM (inactive) | 19.5 µM (inactive) | 49.7 µM (inactive) | 27 µM (inactive) | 28.6 µM (inactive) | 
9 | COc1ccc2c(=O)c3ccoc3[nH]c2c1 | > 100 µM (inactive) |  | > 100 µM (inactive) | > 100 µM (inactive) | > 100 µM (inactive) | > 100 µM (inactive) | > 100 µM (inactive) | > 100 µM (inactive) | > 100 µM (inactive) | > 100 µM (inactive) | > 100 µM (inactive) | > 100 µM (inactive) | > 100 µM (inactive) | > 100 µM (inactive) | > 100 µM (inactive) | > 100 µM (inactive) | > 100 µM (inactive) | > 100 µM (inactive) | > 100 µM (inactive) | 
10 | Cc1nc2c(=O)n(-c3ccccc3)c3ccccc3c2o1 | > 100 µM (inactive) | > 100 µM (inactive) | > 100 µM (inactive) | > 100 µM (inactive) | > 100 µM (inactive) | > 100 µM (inactive) | > 100 µM (inactive) | > 100 µM (inactive) | > 100 µM (inactive) | > 100 µM (inactive) | > 100 µM (inactive) | > 100 µM (inactive) | > 100 µM (inactive) | > 100 µM (inactive) | > 100 µM (inactive) | > 100 µM (inactive) | > 100 µM (inactive) | > 100 µM (inactive) | > 100 µM (inactive) | 
11 | CO[C@]12C[C@H](CNC(=O)c3ccc[nH]3)O[C@H]1NC(=O)N2 | > 100 µM (inactive) | > 100 µM (inactive) | > 100 µM (inactive) |  | > 100 µM (inactive) | > 100 µM (inactive) | > 100 µM (inactive) |  | > 100 µM (inactive) | > 100 µM (inactive) | > 100 µM (inactive) | > 100 µM (inactive) | > 100 µM (inactive) | > 100 µM (inactive) | > 100 µM (inactive) | > 100 µM (inactive) | > 100 µM (inactive) | 33.7 µM (inactive) | > 100 µM (inactive) | > 100 µM (inactive)
12 | O=C(CCCN1CCC2(CC1)CC(=O)N(N1CCCCCC1)C2=O)c1ccccc1 | > 100 µM (inactive) | > 100 µM (inactive) | > 100 µM (inactive) | > 100 µM (inactive) | > 100 µM (inactive) |  | > 100 µM (inactive) |  | > 100 µM (inactive) | > 100 µM (inactive) | > 100 µM (inactive) | > 100 µM (inactive) | > 100 µM (inactive) | > 100 µM (inactive) | > 100 µM (inactive) | > 100 µM (inactive) | > 100 µM (inactive) | 67.1 µM (inactive) | > 100 µM (inactive) | > 100 µM (inactive)
13 | CCC(=O)Nc1cccc(NC(=O)c2c(Cl)c(Cl)c(Cl)c(Cl)c2-c2nc3ccccc3[nH]2)c1 | > 100 µM (inactive) | 0.0851 µM (active) | > 100 µM (inactive) | > 100 µM (inactive) |  | 0.0968 µM (active) |  | 49.7 µM (inactive) | 14.2 µM (inactive) | 7.82 µM (inactive) | 5.21 µM (inactive) |  | 87.3 µM (inactive) | > 100 µM (inactive) |  | 52.8 µM (inactive) | 29 µM (inactive) | 66.2 µM (inactive) | 82.4 µM (inactive) | 56.2 µM (inactive)
14 | CS(=O)(=O)C[S+]([O-])C[S+]([O-])C[S+]([O-])CC(NC(=O)CCC(N)C(=O)O)C(=O)O (configuration not stated) | > 100 µM (inactive) | > 100 µM (inactive) | > 100 µM (inactive) | > 100 µM (inactive) |  | > 100 µM (inactive) | > 100 µM (inactive) | > 100 µM (inactive) | > 100 µM (inactive) | > 100 µM (inactive) | > 100 µM (inactive) | > 100 µM (inactive) | > 100 µM (inactive) | > 100 µM (inactive) |  | > 100 µM (inactive) | > 100 µM (inactive) | > 100 µM (inactive) | > 100 µM (inactive) | > 100 µM (inactive)
15 | OCCSCc1cc(Cl)cc(Cl)c1O | > 100 µM (inactive) | > 100 µM (inactive) |  | > 100 µM (inactive) | > 100 µM (inactive) | > 100 µM (inactive) | > 100 µM (inactive) | > 100 µM (inactive) | > 100 µM (inactive) | > 100 µM (inactive) | > 100 µM (inactive) | > 100 µM (inactive) | > 100 µM (inactive) | > 100 µM (inactive) | 61.7 µM (inactive) | > 100 µM (inactive) | > 100 µM (inactive) | > 100 µM (inactive) | > 100 µM (inactive) | > 100 µM (inactive)
